The target of this assay is GluA1o-γ8 (GRIA1o-CACNG8 fusion construct; TARP γ8 dependent AMPA receptor) (Homo sapiens (Human), UniProt P42261+Q8WXS5). Kind of assay: Calcium flux assay (FLIPR), inhibition of glutamate response of GluA1o-γ8 channel. The note with it: HEK293 cells stably expressing GRIA1o-CACNG8 fusion; 15 μM glutamate; pIC50 = negative log of IC50 in molar; read-out: GluR1-γ8 (pIC50) (converted). The class given is cell-based. In outline: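 Potency is the midpoint of a four-parameter logistic fit to control-normalized FLIPR calcium responses elicited by 15 μM glutamate. Stable HEK293 cells carried a fused GluA1o-γ8 construct and were preincubated with compound and calcium dye in pH 7.4 HEPES buffer.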
GluA1o-γ8 (GRIA1o-CACNG8 fusion construct; TARP γ8 dependent AMPA receptor), sequence (P42261 other isoform, or with tags, fused parts or gaps): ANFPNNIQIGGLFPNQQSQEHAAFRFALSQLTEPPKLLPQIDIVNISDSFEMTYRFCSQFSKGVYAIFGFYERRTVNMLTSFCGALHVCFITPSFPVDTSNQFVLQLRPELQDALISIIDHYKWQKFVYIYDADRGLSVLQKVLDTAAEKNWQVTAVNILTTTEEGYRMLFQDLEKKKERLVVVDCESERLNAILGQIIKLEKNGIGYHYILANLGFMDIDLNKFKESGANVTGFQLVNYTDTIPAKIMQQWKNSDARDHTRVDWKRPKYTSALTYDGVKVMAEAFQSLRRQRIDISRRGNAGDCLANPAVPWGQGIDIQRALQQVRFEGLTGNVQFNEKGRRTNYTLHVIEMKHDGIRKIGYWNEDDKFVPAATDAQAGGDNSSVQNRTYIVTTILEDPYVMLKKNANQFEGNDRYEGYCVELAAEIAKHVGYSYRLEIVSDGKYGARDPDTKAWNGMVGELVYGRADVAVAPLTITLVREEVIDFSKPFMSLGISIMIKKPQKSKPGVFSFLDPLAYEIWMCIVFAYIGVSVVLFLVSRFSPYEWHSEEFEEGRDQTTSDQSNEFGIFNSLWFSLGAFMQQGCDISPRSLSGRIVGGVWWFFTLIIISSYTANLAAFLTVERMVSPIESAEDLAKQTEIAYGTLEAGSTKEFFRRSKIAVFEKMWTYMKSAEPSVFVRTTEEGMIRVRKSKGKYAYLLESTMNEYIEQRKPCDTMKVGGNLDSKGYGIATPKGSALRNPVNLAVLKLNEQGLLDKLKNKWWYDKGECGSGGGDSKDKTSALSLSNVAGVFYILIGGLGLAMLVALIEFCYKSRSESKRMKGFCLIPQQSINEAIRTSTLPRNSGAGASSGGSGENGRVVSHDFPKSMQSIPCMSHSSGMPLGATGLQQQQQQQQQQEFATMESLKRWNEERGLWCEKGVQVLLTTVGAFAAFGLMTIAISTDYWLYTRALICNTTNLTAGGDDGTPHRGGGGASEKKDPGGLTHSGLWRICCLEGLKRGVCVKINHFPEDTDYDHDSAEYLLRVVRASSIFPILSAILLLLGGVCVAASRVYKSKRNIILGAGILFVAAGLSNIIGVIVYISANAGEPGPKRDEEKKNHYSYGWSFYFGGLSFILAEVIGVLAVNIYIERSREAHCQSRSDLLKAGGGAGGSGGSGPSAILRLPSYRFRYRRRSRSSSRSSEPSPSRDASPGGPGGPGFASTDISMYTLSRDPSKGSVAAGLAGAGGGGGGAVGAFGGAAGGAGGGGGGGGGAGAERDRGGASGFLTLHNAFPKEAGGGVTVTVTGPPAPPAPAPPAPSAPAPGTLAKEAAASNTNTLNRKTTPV

Turning to `CN(C)c1nccn2c(-c3ccc4c(c3)CC(=O)N4)c(C(=O)c3ccccc3)nc12` [Example 152, 5-[2-Benzoyl-8-(dimethylamino)imidazo[1,2-a]pyrazin-3-yl]indolin-2-one], the IC50 was 3.98 nM.
`CC(=O)N1CCN(c2nccc3c(-c4ccc5c(c4)CC(=O)N5)c(-c4ccc(F)cc4)nn23)CC1` [Example 172, 5-[7-(4-Acetylpiperazin-1-yl)-2-(4-fluorophenyl)pyrazolo[1,5-c]pyrimidin-3-yl]indolin-2-one]: the IC50 is 0.158 nM.
Under `O=C1Cc2cc(-c3c(C4CCC4)nn4cnc(C(F)(F)F)cc34)ccc2N1` [Example 226, 5-[2-Cyclobutyl-5-(trifluoromethyl)pyrazolo[1,5-c]pyrimidin-3-yl]indolin-2-one] stands 794 nM.
Turning to `O=C1Cc2cc(-c3c(-c4ccc(F)c(F)c4)nc4c(N5CCOCC5)nccn34)ccc2N1` [Example 35, 5-[2-(3,4-Difluorophenyl)-8-morpholino-imidazo[1,2-a]pyrazin-3-yl]indolin-2-one], the IC50 was 0.501 nM.
With `N#Cc1ccc(-c2nc3c(N4CCOCC4)nccn3c2-c2ccc(O)cc2)cc1` [Example 95, 4-[3-(4-Hydroxyphenyl)-8-morpholino-imidazo[1,2-a]pyrazin-2-yl]benzonitrile], the IC50 is 31.6 nM.
Consider `O=C1Cc2cc(-c3c(C(=O)NCc4ccccc4)nc4c(N5CCOCC5)nccn34)ccc2N1` [Example 142, N-Benzyl-8-morpholino-3-(2-oxoindolin-5-yl)imidazo[1,2-a]pyrazine-2-carboxamide], for which the IC50 is 31.6 nM.
With `O=C1Cc2cc(-c3c(-c4ccc(F)cc4)nn4c(N5CCC(F)CC5)nccc34)ccc2N1` [Example 190, 5-[2-(4-Fluorophenyl)-7-(4-fluoro-1-piperidyl)pyrazolo[1,5-c]pyrimidin-3-yl]indolin-2-one], the IC50 is 0.2 nM.
Under `O=C1Cc2cc(-c3c(-c4ccc(F)cc4)nc4c(N5CC(F)(F)C5)nccn34)ccc2N1` [Example 60, 5-[8-(3,3-Difluoroazetidin-1-yl)-2-(4-fluorophenyl)imidazo[1,2-a]pyrazin-3-yl]indolin-2-one] stands 1.58 nM; under `O=C1Cc2cc(-c3c(-c4ccc(F)cc4)nc4c(N5CC[C@@H](O)C5)nccn34)ccc2N1` (single isomer, unassigned) [Example 52, (R*)-5-[2-(4-Fluorophenyl)-8-(3-hydroxypyrrolidin-1-yl)imidazo[1,2-a]pyrazin-3-yl]indolin-2-one], 1.58 nM.
Regarding `c1ccc(Cc2nc3c(N4CCOCC4)nccn3c2-c2ccc3[nH]ncc3c2)cc1` [Example 21, 4-[2-Benzyl-3-(1H-indazol-5-yl)imidazo[1,2-a]pyrazin-8-yl]morpholine], the IC50 is 1 nM.
On to `O=C1Cc2cc(-c3c(C4CC4)nn4cnc(C(F)(F)F)cc34)ccc2N1` [Example 228, 5-[2-Cyclopropyl-5-(trifluoromethyl)pyrazolo[1,5-c]pyrimidin-3-yl]indolin-2-one], for which the IC50 is 39800 nM.
As to `CC(=O)N1CCN(c2ncc(C)n3c(-c4ccc5c(c4)CC(=O)N5)c(Cc4ccccc4)nc23)CC1` [Example 114, 5-(8-(4-Acetylpiperazin-1-yl)-2-benzyl-5-methylimidazo[1,2-a]pyrazin-3-yl)indolin-2-one], the IC50 is 2 nM.
On to `CS(=O)(=O)c1nccn2c(-c3ccc4c(c3)CC(=O)N4)c(-c3ccc(F)cc3)nc12` [Example 127, 5-[2-(4-Fluorophenyl)-8-methylsulfonyl-imidazo[1,2-a]pyrazin-3-yl]indolin-2-one], for which the IC50 is 398 nM.
Under `O=C1Cc2cc(-c3c(-c4ccc(F)cc4)nc4c(N5CCO[C@@H](C(F)(F)F)C5)nccn34)ccc2N1` (single isomer, unassigned) [Example 48, (R*)-5-[2-(4-Fluorophenyl)-8-[2-(trifluoromethyl)morpholin-4-yl]imidazo[1,2-a]pyrazin-3-yl]indolin-2-one] stands 12.6 nM; under `CC1(O)CCN(c2nccc3c(-c4ccc5c(c4)CC(=O)N5)c(-c4ccc(F)cc4)nn23)CC1` [Example 186, 5-[2-(4-Fluorophenyl)-7-(4-hydroxy-4-methyl-1-piperidyl)pyrazolo[1,5-c]pyrimidin-3-yl]indolin-2-one], 0.2 nM; under `CC(C)c1nn2cnc(C(F)(F)F)cc2c1-c1ccc2c(c1)CC(=O)N2` [Example 227, 5-[2-Isopropyl-5-(trifluoromethyl)pyrazolo[1,5-c]pyrimidin-3-yl]indolin-2-one], 1580 nM.
Under `CC(=O)NC1CCN(c2nccn3c(-c4ccc(O)cc4)c(-c4ccc(Cl)cc4)nc23)CC1` [Example 93, N-[1-[2-(4-Chlorophenyl)-3-(4-hydroxyphenyl)imidazo[1,2-a]pyrazin-8-yl]-4-piperidyl]acetamide] stands 31.6 nM; under `O=C1Cc2cc(-c3c(-c4ccc(F)cc4)nc4c(N5CC(F)C5)nccn34)ccc2N1` [Example 59, 5-[8-(3-Fluoroazetidin-1-yl)-2-(4-fluorophenyl)imidazo[1,2-a]pyrazin-3-yl]indolin-2-one], 0.501 nM; under `CC1C(=O)N(C)CCN1c1nccn2c(-c3ccc4c(c3)CC(=O)N4)c(-c3ccc(F)cc3)nc12` (centres unmarked) [Example 111, 5-(8-(2,4-Dimethyl-3-oxopiperazin-1-yl)-2-(4-fluorophenyl)imidazo[1,2-a]pyrazin-3-yl)indolin-2-one], 1.58 nM.
For the molecule `O=C1CN(c2nccc3c(-c4ccc5c(c4)CC(=O)N5)c(-c4ccc(F)cc4)nn23)CCN1` [Example 168, 5-[2-(4-Fluorophenyl)-7-(3-oxopiperazin-1-yl)pyrazolo[1,5-c]pyrimidin-3-yl]indolin-2-one], the IC50 is 1.26 nM.
Regarding `Oc1ccc(-c2c(-c3cccc(F)c3)nc3c(N4CCOCC4)nccn23)cc1` [Example 4, 4-[2-(3-Fluorophenyl)-8-morpholino-imidazo[1,2-a]pyrazin-3-yl]phenol], the IC50 was 63.1 nM.
Consider `O=c1[nH]c2ccc(-c3c(-c4ccc(F)cc4)nc4c(O)nccn34)cc2[nH]1` [Example 249, 5-[2-(4-Fluorophenyl)-8-hydroxy-imidazo[1,2-a]pyrazin-3-yl]-1,3-dihydrobenzimidazol-2-one], for which the IC50 is 1580 nM.
In the case of `O=C1Cc2cc(-c3c(-c4ccccc4)nn4c(OC5CCCC5)nccc34)ccc2N1` [Example 192, 5-[7-(Cyclopentoxy)-2-phenyl-pyrazolo[1,5-c]pyrimidin-3-yl]indolin-2-one], the IC50 is 7.94 nM.
For the molecule `CN(C)c1nccn2c(-c3ccc4c(c3)CC(=O)N4)c(-c3ccc(F)cc3)nc12` [Example 141, 5-[8-(Dimethylamino)-2-(4-fluorophenyl)imidazo[1,2-a]pyrazin-3-yl]indolin-2-one], the IC50 is 0.794 nM.
As for `O=C(c1ccccc1)c1nc2c(N3CCOCC3)nccn2c1-c1ccc2[nH]c(=O)oc2c1` [Example 156, 6-(2-Benzoyl-8-morpholino-imidazo[1,2-a]pyrazin-3-yl)-3H-1,3-benzoxazol-2-one], the IC50 was 1.26 nM.
With `O=C1Cc2cc(-c3c(C4CCCC4)nn4c(N5CCOCC5)nccc34)ccc2N1` [Example 203, 5-(2-Cyclopentyl-7-morpholino-pyrazolo[1,5-c]pyrimidin-3-yl)indolin-2-one], the IC50 is 63.1 nM.
In the case of `O=C1Cc2cc(-c3c(C(=O)c4ccccc4)nc4c(N5CCS(=O)(=O)CC5)nccn34)ccc2N1` [Example 157, 5-[2-Benzoyl-8-(1,1-dioxo-1,4-thiazinan-4-yl)imidazo[1,2-a]pyrazin-3-yl]indolin-2-one], the IC50 was 2.51 nM.
For the molecule `O=C1Cc2cc(-c3c(-c4ccc(F)cc4)nc4c(N5CCO[C@H](C(F)(F)F)C5)nccn34)ccc2N1` (single isomer, unassigned) [Example 49, (S*)-5-[2-(4-Fluorophenyl)-8-[2-(trifluoromethyl)morpholin-4-yl]imidazo[1,2-a]pyrazin-3-yl]indolin-2-one], the IC50 was 7.94 nM.
For `O=C(c1ccccc1)c1nc2c(N3CCOCC3)nccn2c1-c1ccc2c(c1)CS(=O)(=O)N2` [Example 159, [3-(2,2-Dioxo-1,3-dihydro-2,1-benzothiazol-5-yl)-8-morpholino-imidazo[1,2-a]pyrazin-2-yl]-phenyl-methanone], the IC50 was 7.94 nM.
As for `O=C1CN(c2nccn3c(-c4ccc5[nH]ncc5c4)c(-c4ccc(F)cc4)nc23)CCN1` [Example 33, 4-[2-(4-Fluorophenyl)-3-(1H-indazol-5-yl)imidazo[1,2-a]pyrazin-8-yl]piperazin-2-one], the IC50 was 0.2 nM.
With `Oc1ccc(-c2c(-c3ccc(F)cc3)nc3c(N4CCCC4)nccn23)cc1` [Example 126, 4-[2-(4-Fluorophenyl)-8-pyrrolidin-1-yl-imidazo[1,2-a]pyrazin-3-yl]phenol], the IC50 was 50.1 nM.
As to `CC1(O)CN(c2nccc3c(-c4ccc5c(c4)CC(=O)N5)c(-c4ccc(F)cc4)nn23)C1` [Example 184, 5-[2-(4-Fluorophenyl)-7-(3-hydroxy-3-methyl-azetidin-1-yl)pyrazolo[1,5-c]pyrimidin-3-yl]indolin-2-one], the IC50 was 3.16 nM.
Under `N#CC1CN(c2nccn3c(-c4ccc5c(c4)CC(=O)N5)c(-c4ccc(F)cc4)nc23)C1` [Example 66, 1-[2-(4-Fluorophenyl)-3-(2-oxoindolin-5-yl)imidazo[1,2-a]pyrazin-8-yl]azetidine-3-carbonitrile] stands 3.98 nM; under `O=C1Cc2cc(-c3c(-c4ccccc4)nn4c(N5CC[C@@H](O)[C@H](F)C5)nccc34)ccc2N1` (relative stereo) [Example 193, trans-5-[7-(3-Fluoro-4-hydroxy-1-piperidyl)-2-phenyl-pyrazolo[1,5-c]pyrimidin-3-yl]indolin-2-one], 0.316 nM; under `O=C1Cc2cc(-c3c(-c4ccccc4)nn4cnc(C(F)(F)F)cc34)ccc2N1` [Example 222, 5-[2-Phenyl-5-(trifluoromethyl)pyrazolo[1,5-c]pyrimidin-3-yl]indolin-2-one], 12.6 nM.

These data come from US10513523B2, “Imidazopyrazines and pyrazolopyrimidines and their use as AMPA receptor modulators” (Janssen Pharmaceutica NV, priority 2015, dated 2019).
